Measurements from patent publication US20100267803A1, “Regulators Of Fat Metabolism As Anti-Cancer Targets” (The Research Foundation of State University Of New York, priority 2008, published 2010).

How the values were obtained:
Type in all cases: cell-based, human
[1] = test system: ERBB2 mRNA; experiment: qRT-PCR of ERBB2 mRNA in BT474 cells; settings: shRNA 48 h
Method: (§1) Results are shown as percentage of control. (**P=0.03). (c) BT474 cells were transfected with luciferase (control), PBP and NR1D1 shRNAs and co-transfected with GFP. Green cells were counted at intervals and expressed as percentage of control. (Error bars are s.d from 3 individual experiments; *P<0.08, **P<0.03, ***P<0.005). (d) BT474 cells were transfected with luciferase (control), PBP or NR shRNAs for 48 h. Immunofluorescence was performed for cleaved Caspase-3 signal; cell nuclei were stained with Hoechst 33243. (e) Cells from […] were counted for cleaved Caspase-3 signal. (Error bars are s.d from 3 individual experiments; ***P<0.0003). (f) BT474 cells were transfected with luciferase (control) PBP, NR1D1 or PBP and NR1D1 shRNAs together and co-transfected with GFP. Transfected cells were counted at 24 h and 72 h and the 72 h-to-24 h ratio for each shRNA was calculated and expressed as % of the control shRNA (luciferase). (Error bars are s.d from 3 individual experiments; **P=0.01, ***P<0.002). (g) Cells from (f) were counted for cleaved Caspase-3 signal. (Error bars are s.d from 3 individual experiments; ***P<0.0001). (h) ERBB2 mRNA levels of BT474 cells transfected with luciferase (control), PBP or NR1D1 shRNAs for 48 h, analyzed by qRT-PCRs. (Error bars are s.d from 3 individual experiments; ***P=0.0001).
Cell viability—apoptosis assays. […]

[2] = test system: FASN mRNA; experiment: qRT-PCR of FASN mRNA in BT474 cells; settings: shRNA or 20 μM GW9662 for 48 h
Method: (§2) FIG. 4 NR1D1 and PBP coordinate fatty acid metabolism in breast cancer cells. (a) BT474, MDA-MB-361, MCF-7 and HMEC cells were stained with Oil-Red O lipid and hematoxylin nuclear stains. (b) Fat stores were quantified by BODIPY 493/503 lipid probe staining (Error bars are s.d from 3 individual experiments). (c) FASN, ACLY, ACACA and FADS2 mRNA levels of BT474 cells treated with luciferase (control), PBP or NR1D1 shRNAs, or with vehicle and 20 μM of GW9662 for 48 h, analyzed by qRT-PCRs. (Error bars are s.d from 3 experiments; ***P<0.001, **P=0.005) (d) BT474 cells were transfected with FASN, ACLY and ACACA shRNAs and co-transfected with GFP. Transfected cells were counted at 24 h and 72 h and the 72h-to-24 h ratio for each shRNA was calculated and expressed as % of the control shRNA (luciferase). (Error bars are s.d from 3 individual experiments; **P<0.01, ***P<0.002). (e) BODIPY images and (f) quantification of BT474 cells transfected with luciferase (control), PBP or NR1D1 shRNAs and co-transfected with DsRed (Error bars are s.d from 3 individual experiments; ***P<0.03). Arrows indicate transfected cells.
(§3) Cell viability—apoptosis assays. […] At least 30 fields were imaged per single experiment. […] Immunoblotting. […] PCR reaction was run using standard conditions.

[3] = test system: ACACA mRNA; experiment: qRT-PCR of ACACA mRNA in BT474 cells; settings: shRNA or 20 μM GW9662 for 48 h
Method: as §2, §3

[4] = test system: MDH1 mRNA; experiment: qRT-PCR of MDH1 mRNA in BT474 cells; settings: shRNA 48 h
Method: (§4) FIG. 5. (a) MDH1 and ME1 mRNA levels of BT474 cells treated with luciferase (control), PBP or NR1D1 shRNAs for 48 h, analyzed by qRT-PCRs. (Error bars are s.d from 3 experiments; **P<0.002 (b) BT474 and MCF-7 cells were transfected with luciferase (control) MDH1 and ME1 shRNAs (Error bars are s.d from 3 individual experiments; ***P=0.0003). (c) BT474 cells) assayed for cleaved Caspase-3 signal by immunofluorescence 48 h after transfection; cell nuclei were stained with Hoechst 33243. (d) Quantification of cleaved Caspase-3 signal from cells in (c). (Error bars are s.d from 3 individual experiments; ***P<0.005). (e) Enzymes involved in fatty acid synthesis and storage that are regulated by NR1D1 and PBP and their proposed contribution to energy production necessary for survival of ERBB2-positive breast cancer cells.
as §3

[5] = test system: ME1 mRNA; experiment: qRT-PCR of ME1 mRNA in BT474 cells; settings: shRNA 48 h
Method: as §4, §3

[6] = test system: BMAL1 reporter; experiment: BMAL1 luciferase reporter assay in BT474 cells; settings: shRNA 48 h, vs empty vector
Method: FIG. 2 NR1D1 and PBP are necessary for survival of ERBB2-positive cells. (a) PBP and NR1D1 mRNA levels of BT474 cells transfected with luciferase (control), PBP or NR1D1 shRNAs for 48 h, analyzed by qRT-PCRs. (Error bars are s.d from 3 experiments; ***P<0.003, **P=0.01, *P=0.02). (b) BMAL1 luciferase reporter activity of BT474 cells transfected with either empty vector (control), or NR1D1 shRNA for 48 h.
FIG. 3 PPAR. inhibition impacts NR1D1 expression and ERBB2-positive cells viability. (a) Cell counts of BT474, MDA-MB-361, MCF-7 and HMEC cells treated with vehicle, 10 and 20 μM of the PPAR. antagonist GW9662 for 72 hrs. Results represented as % of control (vehicle). (Error bars are s.d from 3 individual experiments; *P>0.2, **P<0.05, ***P<0.002). (b) BT474 cells treated with vehicle or 20 μM of GW9662 for 48 h were immuno-stained for cleaved Caspase-3. (c) Quantification of Caspase-3 signal. […] (d) aP2 and NR1D1 mRNA levels of BT474 cells treated with vehicle (control) and 20 μM of GW9662 for 48 h, analyzed by qRT-PCRs. […]
Reporter assays. […] Cells were lysed 48 h post-transfection and firefly (reporter) and renilla luciferase activities were measured using the Dual-Luciferase Reporter Assay kit (Promega) on a BioTek Synergy HT reader. The ratio of Firefly to Renilla luciferase activity was calculated and presented as percentage of control.

[7] = test system: BT474 cells; experiment: Counts of GFP co-transfected BT474 cells (cell death / viability); settings: shRNA co-transfected with GFP, counted up to 72 h
Method: as §1, §2, §4, §3

Substance	mRNA levels of ERBB2 [1]	FASN transcript level [2]	ACACA transcript level [3]	MDH1 message levels [4]	ME1 message levels [5]	up-regulation of BMAL1 reporter [6] [fold]	cell death / viability (cell number of transfected cells) [7]
NR1D1 shRNA: shRNA, mature sequence GGCATGGTGTTACTGTGTA (shRNA)	no effect	reduced	reduced	significantly decreased	significantly decreased	2.5	time-dependent decrease of cell number
PBP shRNA: shRNA, mature sequence CCGAGTTCCTCTTATCCTA (shRNA)	significantly decreased	reduced	reduced				time-dependent decrease of cell number
